From publication PMC8924238, “Mapping the sequence specificity of heterotypic amyloid interactions enables the identification of aggregation modifiers” (Nature Communications, 2022)

System: HEK293 Tau^RD-P301S-CFP/YFP expressing biosensor cells
Assay: FRET cellular transfection assay with protein constructs and tau seeds
Type: cell-based
Conditions: for rise of induced tau aggregation in transfection-positive cells: compared to non-expressing and non-transfected cells, high seeding concentrations; for susceptibility to tau seeding at low seed concentrations: concentration-dependent quantification; for number of inclusions formed per cell: higher concentrations of tau seeds, compared to the controls
Procedure: HEK293 Tau^RD-P301S-CFP/YFP expressing biosensor cells[109] were purchased from ATCC and cultured in DMEM medium, supplemented with 10% FBS at 37 °C, and a 5% CO2 atmosphere. Gene constructs (Supplementary Methods) were generated and onboarded to a pTwist CMV expression vector by coupling double-tagged (N-terminal HA and C-terminal FLAG recognition sites) genes of interest to an mKO2 fluorescence reporter, separated by an IRES site to enable independent co-expression (Twist Biosciences). Due to restrictions imposed by the construct synthesis, for proteins longer than 500 residues we designed shorter domain-constructs containing the homologous sequences (Supplementary Table 2). Biosensor cells were plated in poly-L-lysine coated 96-well plates (PerkinElmer) at a density of 20000 cells/well. DNA transfection (100 ng) and tau seeds transfection was performed 6 h and 48 h later, respectively, using Lipofectamine 3000 according to the manufacturer guidelines. For seed transfections specifically, a volume of 4.8 μL of the seed sample, mixed with 0.2 μL of Reagent 3000, was added to a mixture of 0.3 μL of Lipofectamine 3000 with 4.7 μL of Opti-MEM medium. Cells were fixed with 4% formaldehyde 24 h after seeding. Fixed cells were stained with DAPI (Thermofisher, D1306) following the manufacturer protocol. For immunofluorescence staining, primary antibody staining at 1:1000 dilution was performed in 1% BSA with an HA-tag (C29F4) Rabbit mAb (Cell Signalling, #3724), followed by secondary staining with an Alexa Fluor 647 goat anti-rabbit antibody (ThermoFisher, A-21245) at 1:1000 dilution in 1% BSA for 1 h. Three individual plate preparations were performed for each construct gradient as independent experiments (n = 3). High-content screening was performed at the VIB Screening Core/C-BIOS, using an Opera Phenix HCS (PerkinElmer) equipped with proper filter channels to track tau aggregation through FRET (Ex:405, Em:550), construct colocalization through HA staining (Ex:647, Em:667) and DAPI staining (Ex:405 Em:430). Image storage and segmentation analysis was performed using the Columbus Plus digital platform (PerkinElmer). Quantification of colocalization was performed using Coloc2 in ImageJ.

In the case of “IDE: insulin degrading enzyme, transiently expressed construct with homology to PHF6”, the “rise of induced tau aggregation in transfection-positive cells” value (from here on “rise of induced tau aggregation”) is reported as 30%, the “susceptibility to tau seeding at low seed concentrations” value is reported as “vulnerable to tau seeding even at picomolar concentrations” and the “number of inclusions formed per cell” value is reported as “doubling or higher effect”.

For “DOCK3: dedicator of cytokinesis, transiently expressed construct”, the “rise of induced tau aggregation” value was 30%.

B1: SNTG1: Synaptotagmin-1 (SNTG1) as worded, transiently expressed construct (protein, UniProt Q9NSN8 1-517, looked up)
Gamma-1-syntrophin: MDFRTACEETKTGICLLQDGNQEPFKVRLHLAKDILMIQEQDVICVSGEPFYSGERTVTIRRQTVGGFGLSIKGGAEHNIPVVVSKISKEQRAELSGLLFIGDAILQINGINVRKCRHEEVVQVLRNAGEEVTLTVSFLKRAPAFLKLPLNEDCACAPSDQSSGTSSPLCDSGLHLNYHPNNTDTLSCSSWPTSPGLRWEKRWCDLRLIPLLHSRFSQYVPGTDLSRQNAFQVIAVDGVCTGIIQCLSAEDCVDWLQAIATNISNLTKHNIKKINRNFPVNQQIVYMGWCEAREQDPLQDRVYSPTFLALRGSCLYKFLAPPVTTWDWTRAEKTFSVYEIMCKILKDSDLLDRRKQCFTVQSESGEDLYFSVELESDLAQWERAFQTATFLEVERIQCKTYACVLESHLMGLTIDFSTGFICFDAATKAVLWRYKFSQLKGSSDDGKSKIKFLFQNPDTKQIEAKELEFSNLFAVLHCIHSFFAAKVACLDPLFLGNQATASTAASSATTSKAKYTT
For B1, the “number of inclusions formed per cell” value was “doubling or higher effect”.

B2: TRA2B: Transformer-2 homolog beta, transiently expressed construct (protein, UniProt P62995 2-288, looked up)
Transformer-2 protein homolog …: SDSGEQNYGERESRSASRSGSAHGSGKSARHTPARSRSKEDSRRSRSKSRSRSESRSRSRRSSRRHYTRSRSRSRSHRRSRSRSYSRDYRRRHSHSHSPMSTRRRHVGNRANPDPNCCLGVFGLSLYTTERDLREVFSKYGPIADVSIVYDQQSRRSRGFAFVYFENVDDAKEAKERANGMELDGRRIRVDFSITKRPHTPTPGIYMGRPTYGSSRRRDYYDRGYDRGYDDRDYYSRSYRGGGGGGGGWRAAQDRDQIYRRRSPSPYYSRGGYRSRSRSRSYSPRRY
B2 was tested, and the “rise of induced tau aggregation” value was 30%, the “susceptibility to tau seeding at low seed concentrations” value was “vulnerable to tau seeding even at picomolar concentrations” and the “number of inclusions formed per cell” value was “doubling or higher effect”.
